The text below walks through data of ChEMBL document CHEMBL5678818, “Discovery of potent SOS1 inhibitors that block RAS activation via disruption of the RAS-SOS1 interaction” (Proc Natl Acad Sci U S A, 2019).

Test [1] addresses Casein kinase I isoform alpha (Homo sapiens) (UniProt P48729). Nature of the test: Inhibition of CSNK1A1 (unknown origin) assessed as residual activity at 1000 nM by KINOMEscan analysis relative to control.
In test [2] the target is T1, Rhodopsin kinase GRK1 (Homo sapiens) (UniProt Q15835).
T1 sequence (whole entry): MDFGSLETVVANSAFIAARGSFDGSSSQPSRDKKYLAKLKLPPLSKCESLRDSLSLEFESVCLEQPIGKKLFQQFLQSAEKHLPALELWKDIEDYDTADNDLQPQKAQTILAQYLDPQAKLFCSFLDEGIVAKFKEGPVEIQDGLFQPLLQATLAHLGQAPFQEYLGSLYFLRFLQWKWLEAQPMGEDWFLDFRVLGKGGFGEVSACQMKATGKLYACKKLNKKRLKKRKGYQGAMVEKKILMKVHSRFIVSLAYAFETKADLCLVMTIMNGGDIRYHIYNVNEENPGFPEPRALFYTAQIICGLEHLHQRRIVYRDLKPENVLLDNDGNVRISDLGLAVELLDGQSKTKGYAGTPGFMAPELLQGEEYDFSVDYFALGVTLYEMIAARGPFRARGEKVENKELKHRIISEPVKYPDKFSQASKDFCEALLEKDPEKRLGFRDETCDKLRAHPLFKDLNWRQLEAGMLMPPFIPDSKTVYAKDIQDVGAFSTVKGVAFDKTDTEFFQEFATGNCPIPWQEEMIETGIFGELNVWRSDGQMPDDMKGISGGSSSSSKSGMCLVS
Nature of the test: Inhibition of GRK1 (unknown origin) assessed as residual activity at 1000 nM by KINOMEscan analysis relative to control.

In test [3] the target is T2, Inhibitor of nuclear factor kappa-B kinase subunit alpha (Homo sapiens) (UniProt O15111).
T2 sequence (whole entry): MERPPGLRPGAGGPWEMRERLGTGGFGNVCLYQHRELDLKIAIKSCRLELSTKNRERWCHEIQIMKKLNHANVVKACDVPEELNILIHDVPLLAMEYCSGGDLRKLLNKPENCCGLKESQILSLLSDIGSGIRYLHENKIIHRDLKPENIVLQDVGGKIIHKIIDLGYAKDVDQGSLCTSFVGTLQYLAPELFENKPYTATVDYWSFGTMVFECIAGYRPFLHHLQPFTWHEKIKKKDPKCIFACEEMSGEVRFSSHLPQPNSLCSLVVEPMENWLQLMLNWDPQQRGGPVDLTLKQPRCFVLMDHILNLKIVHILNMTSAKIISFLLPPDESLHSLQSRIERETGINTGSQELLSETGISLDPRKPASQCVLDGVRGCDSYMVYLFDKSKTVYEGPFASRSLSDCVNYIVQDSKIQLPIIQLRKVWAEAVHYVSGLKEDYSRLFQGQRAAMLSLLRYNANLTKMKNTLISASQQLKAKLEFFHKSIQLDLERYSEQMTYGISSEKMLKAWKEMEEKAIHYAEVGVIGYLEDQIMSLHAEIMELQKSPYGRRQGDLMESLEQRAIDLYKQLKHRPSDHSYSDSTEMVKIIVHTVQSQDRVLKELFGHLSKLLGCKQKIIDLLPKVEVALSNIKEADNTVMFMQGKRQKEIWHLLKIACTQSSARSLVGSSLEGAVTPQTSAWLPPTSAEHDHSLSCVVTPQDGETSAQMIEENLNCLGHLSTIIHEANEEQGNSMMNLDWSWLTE
Nature of the test: Inhibition of IKK-alpha (unknown origin) assessed as residual activity at 1000 nM by KINOMEscan analysis relative to control.

Test [4] has as its target Serine/threonine-protein kinase MARK2 (Homo sapiens) (UniProt Q7KZI7). The test can be described thus: Inhibition of MARK2 (unknown origin) assessed as residual activity at 1000 nM by KINOMEscan analysis relative to control.
In test [5] the target is Phosphatidylinositol 4-phosphate 3-kinase C2 domain-containing subunit beta (Homo sapiens) (UniProt O00750). Nature of the test: Inhibition of PIK3C2B (unknown origin) assessed as residual activity at 1000 nM by KINOMEscan analysis relative to control.
Chain of Phosphatidylinositol 4-phosphate 3-kinase C2 domain-containing subunit beta (Homo sapiens) (O00750 whole entry, the tested form may be a part): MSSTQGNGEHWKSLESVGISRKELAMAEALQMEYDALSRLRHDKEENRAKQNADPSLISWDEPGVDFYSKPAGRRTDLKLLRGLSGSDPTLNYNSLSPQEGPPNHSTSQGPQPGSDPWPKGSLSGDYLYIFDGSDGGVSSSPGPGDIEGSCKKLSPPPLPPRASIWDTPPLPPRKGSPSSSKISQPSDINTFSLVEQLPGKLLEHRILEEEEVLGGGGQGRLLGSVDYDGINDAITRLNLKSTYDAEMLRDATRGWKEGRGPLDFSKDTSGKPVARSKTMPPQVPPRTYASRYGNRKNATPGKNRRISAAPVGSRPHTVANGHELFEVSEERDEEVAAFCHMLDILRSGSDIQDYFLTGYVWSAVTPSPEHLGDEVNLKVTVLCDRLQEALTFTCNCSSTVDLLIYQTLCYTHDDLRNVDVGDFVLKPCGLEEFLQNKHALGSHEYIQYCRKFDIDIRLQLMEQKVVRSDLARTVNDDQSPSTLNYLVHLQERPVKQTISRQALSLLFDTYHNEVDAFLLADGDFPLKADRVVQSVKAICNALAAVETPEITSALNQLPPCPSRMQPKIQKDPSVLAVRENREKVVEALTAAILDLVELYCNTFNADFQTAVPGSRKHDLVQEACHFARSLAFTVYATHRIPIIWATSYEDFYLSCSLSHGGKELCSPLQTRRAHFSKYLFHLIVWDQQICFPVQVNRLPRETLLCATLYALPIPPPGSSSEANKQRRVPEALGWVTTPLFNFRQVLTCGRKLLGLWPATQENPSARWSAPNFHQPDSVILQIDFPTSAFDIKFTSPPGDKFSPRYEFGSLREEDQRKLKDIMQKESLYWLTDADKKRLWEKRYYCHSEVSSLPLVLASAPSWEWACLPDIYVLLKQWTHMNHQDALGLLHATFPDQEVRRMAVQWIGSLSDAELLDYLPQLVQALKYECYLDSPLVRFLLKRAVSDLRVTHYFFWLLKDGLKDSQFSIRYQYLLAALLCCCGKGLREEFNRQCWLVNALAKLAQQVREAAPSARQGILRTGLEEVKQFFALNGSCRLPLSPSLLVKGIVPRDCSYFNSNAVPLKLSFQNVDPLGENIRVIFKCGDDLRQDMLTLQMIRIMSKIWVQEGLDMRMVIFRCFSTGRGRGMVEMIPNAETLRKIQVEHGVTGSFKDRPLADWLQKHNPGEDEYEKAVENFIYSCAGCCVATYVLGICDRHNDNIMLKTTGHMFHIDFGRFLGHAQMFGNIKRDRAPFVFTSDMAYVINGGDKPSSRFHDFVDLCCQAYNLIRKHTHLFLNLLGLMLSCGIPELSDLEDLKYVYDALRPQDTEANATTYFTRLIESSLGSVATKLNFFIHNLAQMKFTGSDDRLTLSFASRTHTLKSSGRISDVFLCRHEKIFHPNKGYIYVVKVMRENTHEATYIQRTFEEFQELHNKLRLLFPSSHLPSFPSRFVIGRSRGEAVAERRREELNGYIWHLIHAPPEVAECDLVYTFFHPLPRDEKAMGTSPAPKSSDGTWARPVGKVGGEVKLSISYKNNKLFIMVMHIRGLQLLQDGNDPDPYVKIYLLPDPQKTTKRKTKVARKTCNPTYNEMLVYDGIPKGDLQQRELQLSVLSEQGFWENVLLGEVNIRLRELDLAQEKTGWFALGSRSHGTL
Test [6] deals with T3, Serine/threonine-protein kinase RIO3 (Homo sapiens) (UniProt O14730).
T3 sequence (whole entry): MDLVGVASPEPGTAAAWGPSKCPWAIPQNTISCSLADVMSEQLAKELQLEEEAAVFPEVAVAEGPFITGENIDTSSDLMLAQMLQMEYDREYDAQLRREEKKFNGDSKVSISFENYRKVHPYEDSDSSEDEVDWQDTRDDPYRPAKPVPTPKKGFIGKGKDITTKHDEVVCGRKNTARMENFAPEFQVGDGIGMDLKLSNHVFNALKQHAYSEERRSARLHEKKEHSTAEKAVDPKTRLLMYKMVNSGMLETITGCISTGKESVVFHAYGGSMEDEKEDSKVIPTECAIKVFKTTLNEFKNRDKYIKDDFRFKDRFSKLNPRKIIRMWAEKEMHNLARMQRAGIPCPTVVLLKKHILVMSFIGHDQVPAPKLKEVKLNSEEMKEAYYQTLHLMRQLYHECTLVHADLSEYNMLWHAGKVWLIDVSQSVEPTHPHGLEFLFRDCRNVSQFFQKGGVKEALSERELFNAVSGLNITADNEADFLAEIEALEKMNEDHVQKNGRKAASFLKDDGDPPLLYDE
The test can be described thus: Inhibition of RIOK3 (unknown origin) assessed as residual activity at 1000 nM by KINOMEscan analysis relative to control.

Test [7] deals with T4, SNF-related serine/threonine-protein kinase (Homo sapiens) (UniProt Q9NRH2).
T4 sequence (whole entry): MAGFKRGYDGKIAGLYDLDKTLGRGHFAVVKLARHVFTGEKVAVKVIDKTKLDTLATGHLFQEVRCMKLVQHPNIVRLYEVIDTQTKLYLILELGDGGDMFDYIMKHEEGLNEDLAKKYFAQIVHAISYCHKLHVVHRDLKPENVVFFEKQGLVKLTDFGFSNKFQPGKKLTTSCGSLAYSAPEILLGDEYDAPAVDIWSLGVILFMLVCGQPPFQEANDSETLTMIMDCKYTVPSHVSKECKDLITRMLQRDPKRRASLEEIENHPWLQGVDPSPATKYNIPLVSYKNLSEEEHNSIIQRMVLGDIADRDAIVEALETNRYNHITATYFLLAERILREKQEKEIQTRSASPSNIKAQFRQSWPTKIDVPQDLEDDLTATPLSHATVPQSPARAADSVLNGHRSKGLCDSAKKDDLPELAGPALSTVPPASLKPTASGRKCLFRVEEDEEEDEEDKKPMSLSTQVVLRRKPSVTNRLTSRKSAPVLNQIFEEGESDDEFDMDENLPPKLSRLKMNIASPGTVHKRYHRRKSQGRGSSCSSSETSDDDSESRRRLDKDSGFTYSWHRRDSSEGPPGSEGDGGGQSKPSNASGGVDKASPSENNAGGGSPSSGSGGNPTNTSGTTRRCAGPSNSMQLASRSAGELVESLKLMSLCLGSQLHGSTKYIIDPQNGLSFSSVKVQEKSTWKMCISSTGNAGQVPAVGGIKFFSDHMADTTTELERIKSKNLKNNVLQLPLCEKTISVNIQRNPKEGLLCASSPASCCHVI
Nature of the test: Inhibition of SNRK (unknown origin) assessed as residual activity at 1000 nM by KINOMEscan analysis relative to control.

Chain of Casein kinase I isoform alpha (Homo sapiens) (P48729 2-337 limits assumed): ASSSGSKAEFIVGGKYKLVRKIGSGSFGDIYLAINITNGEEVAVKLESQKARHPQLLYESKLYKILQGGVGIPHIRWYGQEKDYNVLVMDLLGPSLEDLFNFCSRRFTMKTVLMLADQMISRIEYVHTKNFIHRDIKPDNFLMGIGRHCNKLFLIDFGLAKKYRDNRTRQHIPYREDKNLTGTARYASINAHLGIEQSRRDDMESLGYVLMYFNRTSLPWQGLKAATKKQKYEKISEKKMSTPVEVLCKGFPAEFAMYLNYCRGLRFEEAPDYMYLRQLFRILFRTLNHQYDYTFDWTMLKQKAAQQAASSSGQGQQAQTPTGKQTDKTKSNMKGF
Chain of Serine/threonine-protein kinase MARK2 (Homo sapiens) (Q7KZI7 whole entry, the tested form may be a part): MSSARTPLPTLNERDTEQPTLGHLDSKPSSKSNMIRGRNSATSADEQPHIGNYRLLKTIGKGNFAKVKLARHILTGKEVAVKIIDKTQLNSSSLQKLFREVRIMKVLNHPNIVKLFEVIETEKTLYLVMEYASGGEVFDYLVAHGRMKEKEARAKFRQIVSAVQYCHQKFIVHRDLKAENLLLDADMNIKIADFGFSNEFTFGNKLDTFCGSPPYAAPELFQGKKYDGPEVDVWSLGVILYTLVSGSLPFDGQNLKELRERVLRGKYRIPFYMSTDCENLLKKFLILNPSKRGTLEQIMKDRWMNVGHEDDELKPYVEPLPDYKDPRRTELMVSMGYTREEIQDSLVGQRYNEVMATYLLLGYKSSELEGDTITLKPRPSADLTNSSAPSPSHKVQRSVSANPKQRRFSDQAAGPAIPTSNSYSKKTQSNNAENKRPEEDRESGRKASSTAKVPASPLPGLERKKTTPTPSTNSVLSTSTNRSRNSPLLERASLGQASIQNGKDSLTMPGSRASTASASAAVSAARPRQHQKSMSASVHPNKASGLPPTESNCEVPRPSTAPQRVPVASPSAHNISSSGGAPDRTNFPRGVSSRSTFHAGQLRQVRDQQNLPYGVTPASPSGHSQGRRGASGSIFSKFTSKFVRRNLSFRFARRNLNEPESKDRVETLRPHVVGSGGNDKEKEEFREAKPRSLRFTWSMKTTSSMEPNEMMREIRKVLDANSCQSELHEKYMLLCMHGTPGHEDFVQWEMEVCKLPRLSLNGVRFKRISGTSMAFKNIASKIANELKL

As to `COc1cc2ncnc(N[C@H](C)c3cccc4ccccc34)c2cc1OC`, the Activity in test [1] came out at 96%; in test [2], 94%; in test [3], 70%; in test [4], 75%; in test [5] it was 89%; in test [6], 83%. Moreover, in test [7], the Activity worked out at 92%.
Take `COc1cc2nc(C)nc(N[C@H](C)c3cccc(-c4cn[nH]c4)c3)c2cc1OC`: the Activity in test [1] turned out to be 76%; in test [2] it was 55%; in test [3] it was 81%; in test [4], 100%; in test [5] it was 90%; in test [6], 88%. In addition, the Activity in test [7] is 95%.
